Test system: CN0375-F725-PDC KRAS spheroid viability
Assay: Anticancer human tumor CN0375-F725-PDC patient-derived colon carcinoma cell line growth inhibition [KRAS2]
Details: spheroids with HUVEC and MSC; for IC50: curve of first compound; for viability, T/C: stronger effect = lower value
How it was run: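 Combination screen of spheroid viability in tumor-cell co-cultures with endothelial (HUVEC) and mesenchymal stem cell stroma. Each agent was tested in half-log dilutions, topping at clinical Cmax or at 10 microM without a known Cmax.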

[1] = second compound 0.1 µM, first compound 0.0316 µM
[2] = second compound 0.1 µM, first compound 0.1 µM
[3] = second compound 0.316 µM, first compound 0.0316 µM
[4] = second compound 0.316 µM, first compound 0.1 µM
[5] = second compound 1 µM, first compound 0.0316 µM
[6] = second compound 1 µM, first compound 0.1 µM
[7] = second compound 3.16 µM, first compound 0.0316 µM
[8] = second compound 3.16 µM, first compound 0.1 µM
[9] = second compound 10 µM, first compound 0.0316 µM
[10] = second compound 10 µM, first compound 0.1 µM
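Note: spheroids exposed to agents for 7 days.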

CN(C)C/C=C/C(=O)Nc1cc2c(Nc3ccc(F)c(Cl)c3)ncnc2cc1O[C@H]1CCOC1 + COc1cc2nc(C)nc(NC(C)c3cc(N)cc(C(F)(F)F)c3)c2cc1OC1CCOC1
IC50 (second compound 0.1 µM): > 0.1 µM
IC50 (second compound 0.316 µM): > 0.1 µM
IC50 (second compound 1 µM): > 0.1 µM
IC50 (second compound 3.16 µM): > 0.1 µM
IC50 (second compound 10 µM): > 0.1 µM
viability, T/C (second compound 0.1 µM, first compound 0.000316 µM): 102%
viability, T/C (second compound 0.1 µM, first compound 0.001 µM): 92.6%
viability, T/C (second compound 0.1 µM, first compound 0.00316 µM): 85.7%
viability, T/C (second compound 0.1 µM, first compound 0.01 µM): 83.7%
viability, T/C [1]: 84.8%
viability, T/C [2]: 77.9%
viability, T/C (second compound 0.316 µM, first compound 0.000316 µM): 96%
viability, T/C (second compound 0.316 µM, first compound 0.001 µM): 92.5%
viability, T/C (second compound 0.316 µM, first compound 0.00316 µM): 86.4%
viability, T/C (second compound 0.316 µM, first compound 0.01 µM): 85.7%
viability, T/C [3]: 78.1%
viability, T/C [4]: 79.3%
viability, T/C (second compound 1 µM, first compound 0.000316 µM): 91.9%
viability, T/C (second compound 1 µM, first compound 0.001 µM): 94.6%
viability, T/C (second compound 1 µM, first compound 0.00316 µM): 87.3%
viability, T/C (second compound 1 µM, first compound 0.01 µM): 82.7%
viability, T/C [5]: 81.6%
viability, T/C [6]: 78.1%
viability, T/C (second compound 3.16 µM, first compound 0.000316 µM): 77.3%
viability, T/C (second compound 3.16 µM, first compound 0.001 µM): 71.5%
viability, T/C (second compound 3.16 µM, first compound 0.00316 µM): 71.8%
viability, T/C (second compound 3.16 µM, first compound 0.01 µM): 66.1%
viability, T/C [7]: 66.5%
viability, T/C [8]: 65.8%
viability, T/C (second compound 10 µM, first compound 0.000316 µM): 65.5%
viability, T/C (second compound 10 µM, first compound 0.001 µM): 70.1%
viability, T/C (second compound 10 µM, first compound 0.00316 µM): 68.2%
viability, T/C (second compound 10 µM, first compound 0.01 µM): 47%
viability, T/C [9]: 60.6%
viability, T/C [10]: 63.7%

O=C(c1cc(Cc2n[nH]c(=O)c3ccccc23)ccc1F)N1CCN(C(=O)C2CC2)CC1 + COc1cc2nc(C)nc(NC(C)c3cc(N)cc(C(F)(F)F)c3)c2cc1OC1CCOC1
IC50 (second compound 0.1 µM): > 10 µM
IC50 (second compound 0.316 µM): > 10 µM
IC50 (second compound 1 µM): > 10 µM
IC50 (second compound 3.16 µM): > 10 µM
IC50 (second compound 10 µM): > 10 µM
viability, T/C [1]: 105%
viability, T/C [2]: 106%
viability, T/C (second compound 0.1 µM, first compound 0.316 µM): 98.4%
viability, T/C (second compound 0.1 µM, first compound 1 µM): 107%
viability, T/C (second compound 0.1 µM, first compound 3.16 µM): 98.2%
viability, T/C (second compound 0.1 µM, first compound 10 µM): 106%
viability, T/C [3]: 102%
viability, T/C [4]: 103%
viability, T/C (second compound 0.316 µM, first compound 0.316 µM): 97.8%
viability, T/C (second compound 0.316 µM, first compound 1 µM): 98.8%
viability, T/C (second compound 0.316 µM, first compound 3.16 µM): 98.8%
viability, T/C (second compound 0.316 µM, first compound 10 µM): 93.2%
viability, T/C [5]: 111%
viability, T/C [6]: 107%
viability, T/C (second compound 1 µM, first compound 0.316 µM): 99%
viability, T/C (second compound 1 µM, first compound 1 µM): 97.8%
viability, T/C (second compound 1 µM, first compound 3.16 µM): 107%
viability, T/C (second compound 1 µM, first compound 10 µM): 93.5%
viability, T/C [7]: 92.8%
viability, T/C [8]: 95.4%
viability, T/C (second compound 3.16 µM, first compound 0.316 µM): 85.8%
viability, T/C (second compound 3.16 µM, first compound 1 µM): 84.6%
viability, T/C (second compound 3.16 µM, first compound 3.16 µM): 84.9%
viability, T/C (second compound 3.16 µM, first compound 10 µM): 71.5%
viability, T/C [9]: 82.2%
viability, T/C [10]: 81.4%
viability, T/C (second compound 10 µM, first compound 0.316 µM): 79.3%
viability, T/C (second compound 10 µM, first compound 1 µM): 69.9%
viability, T/C (second compound 10 µM, first compound 3.16 µM): 104%
viability, T/C (second compound 10 µM, first compound 10 µM): 98%
